Four molecules from ChEMBL document CHEMBL4811220, “Investigation of the in vitro and in vivo efficacy of peptoid-based HDAC inhibitors with dual-stage antiplasmodial activity” (Eur J Med Chem, 2021) can be followed below.

The source made the active and inactive calls. No cut-off for these calls is given here.

Data set [1] is described as follows: Intrinsic clearance in mouse liver microsomes measured upto 40 mins by LC-MS/MS analysis.
Data set [2] can be described thus: Intrinsic clearance in human liver microsomes measured upto 40 mins by LC-MS/MS analysis. Type of data set: ADME, Microsome. To be noted: read-out: CLH.
For data set [3], the system named is Plasmodium falciparum. As to the kind of experiment: Resistance index, ratio of IC50 for antiplasmodial activity against multidrug-resistant asexual intraerythrocytic stage of Plasmodium falciparum Dd2 to IC50 for antiplasmodial activity against drug-sensitive asexual intraerythrocytic stage of Plasmodium falciparum 3D7 infected in human O+ erythrocytes by [3H]-hypoxanthine incorporation assay. It is filed as functional.

The nature of data set [4]: Half life in mouse liver microsomes measured upto 40 mins by LC-MS/MS analysis. To be noted: liver microsomes.
A short description of data set [5]: Half life in human liver microsomes measured upto 40 mins by LC-MS/MS analysis. Type of data set: ADME, Microsome.
Data set [6] concerns Plasmodium falciparum. Put plainly: microbe, parasite or virus in culture. It is filed as functional, organism-based. To be noted: 3D7, Erythrocyte.
Data set [7] relates to HepG2. As to the kind of experiment: Cytotoxicity against human HepG2-A16-CD81EGFP cells assessed as inhibition of cell growth incubated for 24 hrs followed by medium transfer and incubation in multimode plate for 48 hrs by CellTiterGlo reagent based luminescence assay.
The nature of data set [8]: Selectivity index, ratio of IC50 for cytotoxicity against human HepG2-A16-CD81EGFP cells to IC50 for antiplasmodial activity against drug-sensitive asexual intraerythrocytic stage of Plasmodium falciparum 3D7 infected in human O+ erythrocytes.
Data set [9] concerns Plasmodium falciparum. As to the kind of experiment: Antiplasmodial activity against multidrug-resistant asexual intraerythrocytic stage of Plasmodium falciparum Dd2 assessed as inhibition of parasite growth incubated for 48 hrs followed by addition of [3H]hypoxanthine for 24 hrs by [3H]hypoxanthine incorporation assay. Type of data set: functional, organism-based.
Data set [10] has as its system Plasmodium berghei. Put plainly: microbe, parasite or virus in culture. Type of data set: functional, organism-based.
The nature of data set [11]: Selective index, ratio of IC50 for human HepG2-A16-CD81EGFP cells to IC50 for antiplasmodial activity against liver stage exo-erythrocytic forms of Plasmodium berghei sporozoites infected in human HepG2-A16-CD81EGFP cells.
Data set [12] relates to Plasmodium berghei. Put plainly: Antimalarial activity against Plasmodium berghei QIMR infected in BALB/c mouse assessed as reduction in peripheral blood parasitemia at 25 mg/kg, po bid for 4 days starting from 2 hrs post infection and measured on 4 to 6 days post-infection by Giemsa staining based microscopic analysis relative to control. Type of data set: functional. To be noted: time 4-6 day.

Data set [13] is described as follows: Selectivity index, ratio of IC50 for cytotoxicity against human HepG2-A16-CD81EGFP cells to IC50 for antiplasmodial activity against multidrug-resistant asexual intraerythrocytic stage of Plasmodium falciparum Dd2. It is filed as toxicity, cell-based. To be noted: read-out: Ratio IC50.
Data set [14] concerns Plasmodium falciparum 3D7. Put plainly: Inhibition of HDAC in trophozite-stage of Plasmodium falciparum 3D7 infected in erythrocytes assessed as hyperacetylation of histone H4 at lysine residue at 5 x IC50 incubated for 3 hrs by western blot analysis. It is filed as cell-based.
Data set [15] addresses Histone deacetylase 1 (Homo sapiens, UniProt Q13547).
Description: Inhibition of C-terminal FLAG/His-tagged human recombinant HDAC1 (1 to 482 residues) expressed in baculovirus infected Sf9 cells using ZMAL (Z-Lys(Ac)-AMC) as fluorogenic substrate incubated for 90 mins by fluorescence based assay
Data set [16] has as its target T1, Protein deacetylase HDAC6 (Homo sapiens, UniProt Q9UBN7).
T1 sequence (Q9UBN7 whole entry): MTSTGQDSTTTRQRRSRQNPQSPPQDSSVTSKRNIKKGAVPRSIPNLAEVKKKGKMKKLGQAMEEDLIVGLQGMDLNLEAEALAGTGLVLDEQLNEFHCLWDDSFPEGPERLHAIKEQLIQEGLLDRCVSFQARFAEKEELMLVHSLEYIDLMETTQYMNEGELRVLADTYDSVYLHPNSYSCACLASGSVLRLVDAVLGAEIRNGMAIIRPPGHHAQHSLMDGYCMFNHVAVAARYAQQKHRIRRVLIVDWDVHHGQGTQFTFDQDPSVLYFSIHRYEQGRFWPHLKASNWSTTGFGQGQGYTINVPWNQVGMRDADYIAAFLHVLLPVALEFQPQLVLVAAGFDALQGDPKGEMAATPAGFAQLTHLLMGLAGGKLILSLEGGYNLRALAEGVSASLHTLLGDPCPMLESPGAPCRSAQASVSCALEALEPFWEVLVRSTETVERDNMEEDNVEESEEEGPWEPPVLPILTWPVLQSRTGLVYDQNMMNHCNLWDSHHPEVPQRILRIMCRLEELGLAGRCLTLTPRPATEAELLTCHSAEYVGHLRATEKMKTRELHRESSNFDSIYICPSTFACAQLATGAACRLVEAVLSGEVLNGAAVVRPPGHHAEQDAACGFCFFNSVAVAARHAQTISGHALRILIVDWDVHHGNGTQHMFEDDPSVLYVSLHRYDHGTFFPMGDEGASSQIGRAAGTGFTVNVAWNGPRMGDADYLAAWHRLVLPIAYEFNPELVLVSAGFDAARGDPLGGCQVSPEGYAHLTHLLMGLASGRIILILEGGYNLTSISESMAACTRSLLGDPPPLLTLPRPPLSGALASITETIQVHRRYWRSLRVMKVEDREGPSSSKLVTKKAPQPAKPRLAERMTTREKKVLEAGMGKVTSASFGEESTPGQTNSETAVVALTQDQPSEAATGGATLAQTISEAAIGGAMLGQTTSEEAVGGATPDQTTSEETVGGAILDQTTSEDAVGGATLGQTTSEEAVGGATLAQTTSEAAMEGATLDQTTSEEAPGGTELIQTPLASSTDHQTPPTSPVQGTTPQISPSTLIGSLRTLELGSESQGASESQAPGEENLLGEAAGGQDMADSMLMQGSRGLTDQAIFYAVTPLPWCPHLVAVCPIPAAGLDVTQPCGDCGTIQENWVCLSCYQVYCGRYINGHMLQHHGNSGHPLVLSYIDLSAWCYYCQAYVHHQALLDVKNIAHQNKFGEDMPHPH
Put plainly: biochemical.
Description: Inhibition of N-terminal GST-tagged full length human recombinant HDAC6 expressed in baculovirus infected Sf9 cells using ZMAL (Z-Lys(Ac)-AMC) fluorogenic substrate incubated for 90 mins by fluorescence based assay

Data set [17] deals with Plasmodium berghei. As to the kind of experiment: Antimalarial activity against Plasmodium berghei QIMR infected in BALB/c mouse assessed as reduction in peripheral blood parasitemia at 10 mg/kg, po qd for 4 days starting from 2 hrs post-infection and measured on 4 to 6 days post-infection by Giemsa staining based microscopic analysis relative to control. To be noted: read-out: INH.

Data set [18] deals with Plasmodium falciparum 3D7. As to the kind of experiment: Inhibition of HDAC in trophozite-stage of Plasmodium falciparum 3D7 infected in erythrocytes assessed as hyperacetylation of histone H4 at lysine residue at 5 x IC50 incubated for 3 hrs by western blot analysis relative to control. It is filed as cell-based.

Histone deacetylase 1, sequence (Q13547 whole entry): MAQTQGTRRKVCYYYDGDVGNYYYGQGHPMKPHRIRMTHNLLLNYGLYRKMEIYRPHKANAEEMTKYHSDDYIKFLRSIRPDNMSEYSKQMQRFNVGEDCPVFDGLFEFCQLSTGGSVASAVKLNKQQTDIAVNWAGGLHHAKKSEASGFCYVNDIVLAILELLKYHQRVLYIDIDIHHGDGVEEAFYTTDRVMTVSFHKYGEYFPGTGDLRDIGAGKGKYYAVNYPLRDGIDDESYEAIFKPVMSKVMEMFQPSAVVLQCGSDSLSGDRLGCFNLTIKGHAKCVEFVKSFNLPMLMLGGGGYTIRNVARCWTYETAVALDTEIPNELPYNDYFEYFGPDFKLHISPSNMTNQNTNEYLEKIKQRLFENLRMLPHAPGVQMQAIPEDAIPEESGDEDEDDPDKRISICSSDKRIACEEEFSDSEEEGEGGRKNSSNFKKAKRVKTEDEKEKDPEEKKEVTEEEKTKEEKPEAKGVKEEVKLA

In the case of `CNC(=O)CN(Cc1ccc(C(=O)NO)cc1)C(=O)c1ccc(C(C)C)cc1`, the microsomal CLint at 40 min in data set [1] was 6 µL/min/mg. In data set [2], the microsomal CLint is 5 µL/min/mg. Moreover, the “Ratio IC50” value in data set [3] worked out at 0.1. Moreover, the half-life at 40 min in [4] is 4.52 h. In addition, the half-life in data set [5] stood at 5.78 h. The 50% inhibitory concentration (IC50) was 16 nM in data set [6]; 9160 nM in data set [7]; 2 nM in data set [9]; 480 nM in data set [10]; 100 nM in data set [15]; 60 nM in [16]. Further, the figures for the selectivity ratio in data set [8], in data set [11] and in data set [13] were 573, 19 and 4580, respectively. For the same molecule, the inhibition in vivo at 25 mg/kg in data set [12] amounted to 33.3%. In addition, the inhibition entry in data set [14] is “Active”.
Regarding `CCN(CC)CCCC(C)Nc1ccnc2cc(Cl)ccc12` (configuration not stated) [CHLOROQUINE], the inhibition in vivo at 10 mg/kg/day in data set [17] is 100%.
In turn, `Cc1ccc(C(=O)N(CC(=O)NCc2ccccc2)Cc2ccc(C(=O)NO)cc2)c(C)c1` showed a microsomal CLint at 40 min in [1] of 38 µL/min/mg. Also, in data set [2], the microsomal CLint was found to be 86 µL/min/mg. For the same molecule, in [3], the “Ratio IC50” value is recorded as 0.1. In data set [4], the half-life at 40 min was 0.747 h. Also, the half-life in data set [5] worked out at 0.328 h. The IC50 turned out to be 24 nM in [6]; 3710 nM in data set [7]; 3 nM in [9]; 160 nM in [10]; 60 nM in [15]; 60 nM in data set [16]. The selectivity ratio in data set [8] worked out at 155; in data set [11], 23. In addition, the inhibition in vivo at 25 mg/kg in data set [12] was determined as 17.6%. Further, the fold change (FC) in data set [18] came out at 2.
As to `Cc1ccccc1C(=O)N(CC(=O)NCc1ccccc1)Cc1ccc(C(=O)NO)cc1`, the “Ratio IC50” value in [3] amounted to 0.3. Besides, the half-inhibitory concentration (IC50) in data set [6] came to 70 nM; in [7] it was 9620 nM; in [9], 21 nM; in [10] it was 300 nM; in data set [15], 280 nM; in data set [16], 30 nM. Besides, the selectivity ratio in data set [8] was found to be 137; in [11] it was 32. The fold change (FC) in [18] was determined as 2.
